Laboratory results as given in article PMC3433743 (Bioorganic & medicinal chemistry letters, 2012).
Entries after “also recorded” stand apart in the source; their conditions may differ. Where two headings read alike, the source gives them in different places.

Assays:
LRRK2[A2016T] = LRRK2[A2016T] (Homo sapiens, UniProt Q5S007, A2016T); assay: LRRK2 enzymatic assay, A2016T mutant; settings: biochemical, Fig. 1
[1] = cited from earlier work
GFP-LRRK2[A2016T] = GFP-LRRK2[A2016T] (Homo sapiens, UniProt Q5S007, A2016T); format: cell-based; settings: HEK293, LRRK2[A2016T], 90 min
endogenous LRRK2 = endogenous LRRK2 (Mus musculus, UniProt Q5S006); format: in vivo
CAMKKβ = CAMKKβ (Homo sapiens, UniProt Q96RR4); assay: Radioactivity-based enzymatic kinase panel; settings: read-out: Inhibition of kinase activity
CHK2 = CHK2 (Homo sapiens, UniProt O96017); assay: Radioactivity-based enzymatic kinase panel; settings: read-out: Inhibition of kinase activity
NUAK1 = biological target: T1, NUAK1 (Homo sapiens, UniProt O60285); assay: Radioactivity-based enzymatic kinase panel; settings: read-out: Inhibition of kinase activity
T1 sequence (O60285 1-661): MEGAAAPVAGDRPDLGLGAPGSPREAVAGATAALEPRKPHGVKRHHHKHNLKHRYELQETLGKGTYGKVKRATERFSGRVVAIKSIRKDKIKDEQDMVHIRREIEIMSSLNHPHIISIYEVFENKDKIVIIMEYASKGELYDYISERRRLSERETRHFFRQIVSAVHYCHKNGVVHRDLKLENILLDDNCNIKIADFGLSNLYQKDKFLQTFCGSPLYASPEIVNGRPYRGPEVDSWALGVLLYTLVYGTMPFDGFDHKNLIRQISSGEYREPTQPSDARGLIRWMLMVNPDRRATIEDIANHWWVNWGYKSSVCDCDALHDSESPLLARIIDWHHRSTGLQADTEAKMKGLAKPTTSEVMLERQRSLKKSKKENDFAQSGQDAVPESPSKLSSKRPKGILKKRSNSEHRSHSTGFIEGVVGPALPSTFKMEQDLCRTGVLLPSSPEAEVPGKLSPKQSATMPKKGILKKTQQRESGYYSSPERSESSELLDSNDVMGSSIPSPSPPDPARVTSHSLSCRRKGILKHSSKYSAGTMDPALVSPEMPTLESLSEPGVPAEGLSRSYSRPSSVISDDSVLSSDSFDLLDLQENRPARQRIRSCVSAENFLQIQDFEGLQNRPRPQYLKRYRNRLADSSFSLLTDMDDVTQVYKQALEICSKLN

PHKã1(PBK) = PHKã1(PBK) (Homo sapiens, UniProt Q16816); assay: Radioactivity-based enzymatic kinase panel; settings: read-out: Inhibition of kinase activity
TSSK1 = biological target: T2, TSSK1 (Homo sapiens, UniProt Q9BXA7); assay: Radioactivity-based enzymatic kinase panel; settings: read-out: Inhibition of kinase activity
T2 sequence (Q9BXA7 1-367): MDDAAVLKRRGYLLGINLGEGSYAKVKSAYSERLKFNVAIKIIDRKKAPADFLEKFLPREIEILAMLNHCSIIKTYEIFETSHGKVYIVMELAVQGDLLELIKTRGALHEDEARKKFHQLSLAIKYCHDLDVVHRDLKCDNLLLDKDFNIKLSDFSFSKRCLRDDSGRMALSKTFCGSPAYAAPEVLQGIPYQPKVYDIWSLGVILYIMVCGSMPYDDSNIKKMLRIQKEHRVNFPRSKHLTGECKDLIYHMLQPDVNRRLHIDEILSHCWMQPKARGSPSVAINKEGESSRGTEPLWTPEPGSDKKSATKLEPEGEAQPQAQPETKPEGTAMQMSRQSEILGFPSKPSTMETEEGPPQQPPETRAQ

endogenous LRRK2, sequence (Q5S006 whole entry): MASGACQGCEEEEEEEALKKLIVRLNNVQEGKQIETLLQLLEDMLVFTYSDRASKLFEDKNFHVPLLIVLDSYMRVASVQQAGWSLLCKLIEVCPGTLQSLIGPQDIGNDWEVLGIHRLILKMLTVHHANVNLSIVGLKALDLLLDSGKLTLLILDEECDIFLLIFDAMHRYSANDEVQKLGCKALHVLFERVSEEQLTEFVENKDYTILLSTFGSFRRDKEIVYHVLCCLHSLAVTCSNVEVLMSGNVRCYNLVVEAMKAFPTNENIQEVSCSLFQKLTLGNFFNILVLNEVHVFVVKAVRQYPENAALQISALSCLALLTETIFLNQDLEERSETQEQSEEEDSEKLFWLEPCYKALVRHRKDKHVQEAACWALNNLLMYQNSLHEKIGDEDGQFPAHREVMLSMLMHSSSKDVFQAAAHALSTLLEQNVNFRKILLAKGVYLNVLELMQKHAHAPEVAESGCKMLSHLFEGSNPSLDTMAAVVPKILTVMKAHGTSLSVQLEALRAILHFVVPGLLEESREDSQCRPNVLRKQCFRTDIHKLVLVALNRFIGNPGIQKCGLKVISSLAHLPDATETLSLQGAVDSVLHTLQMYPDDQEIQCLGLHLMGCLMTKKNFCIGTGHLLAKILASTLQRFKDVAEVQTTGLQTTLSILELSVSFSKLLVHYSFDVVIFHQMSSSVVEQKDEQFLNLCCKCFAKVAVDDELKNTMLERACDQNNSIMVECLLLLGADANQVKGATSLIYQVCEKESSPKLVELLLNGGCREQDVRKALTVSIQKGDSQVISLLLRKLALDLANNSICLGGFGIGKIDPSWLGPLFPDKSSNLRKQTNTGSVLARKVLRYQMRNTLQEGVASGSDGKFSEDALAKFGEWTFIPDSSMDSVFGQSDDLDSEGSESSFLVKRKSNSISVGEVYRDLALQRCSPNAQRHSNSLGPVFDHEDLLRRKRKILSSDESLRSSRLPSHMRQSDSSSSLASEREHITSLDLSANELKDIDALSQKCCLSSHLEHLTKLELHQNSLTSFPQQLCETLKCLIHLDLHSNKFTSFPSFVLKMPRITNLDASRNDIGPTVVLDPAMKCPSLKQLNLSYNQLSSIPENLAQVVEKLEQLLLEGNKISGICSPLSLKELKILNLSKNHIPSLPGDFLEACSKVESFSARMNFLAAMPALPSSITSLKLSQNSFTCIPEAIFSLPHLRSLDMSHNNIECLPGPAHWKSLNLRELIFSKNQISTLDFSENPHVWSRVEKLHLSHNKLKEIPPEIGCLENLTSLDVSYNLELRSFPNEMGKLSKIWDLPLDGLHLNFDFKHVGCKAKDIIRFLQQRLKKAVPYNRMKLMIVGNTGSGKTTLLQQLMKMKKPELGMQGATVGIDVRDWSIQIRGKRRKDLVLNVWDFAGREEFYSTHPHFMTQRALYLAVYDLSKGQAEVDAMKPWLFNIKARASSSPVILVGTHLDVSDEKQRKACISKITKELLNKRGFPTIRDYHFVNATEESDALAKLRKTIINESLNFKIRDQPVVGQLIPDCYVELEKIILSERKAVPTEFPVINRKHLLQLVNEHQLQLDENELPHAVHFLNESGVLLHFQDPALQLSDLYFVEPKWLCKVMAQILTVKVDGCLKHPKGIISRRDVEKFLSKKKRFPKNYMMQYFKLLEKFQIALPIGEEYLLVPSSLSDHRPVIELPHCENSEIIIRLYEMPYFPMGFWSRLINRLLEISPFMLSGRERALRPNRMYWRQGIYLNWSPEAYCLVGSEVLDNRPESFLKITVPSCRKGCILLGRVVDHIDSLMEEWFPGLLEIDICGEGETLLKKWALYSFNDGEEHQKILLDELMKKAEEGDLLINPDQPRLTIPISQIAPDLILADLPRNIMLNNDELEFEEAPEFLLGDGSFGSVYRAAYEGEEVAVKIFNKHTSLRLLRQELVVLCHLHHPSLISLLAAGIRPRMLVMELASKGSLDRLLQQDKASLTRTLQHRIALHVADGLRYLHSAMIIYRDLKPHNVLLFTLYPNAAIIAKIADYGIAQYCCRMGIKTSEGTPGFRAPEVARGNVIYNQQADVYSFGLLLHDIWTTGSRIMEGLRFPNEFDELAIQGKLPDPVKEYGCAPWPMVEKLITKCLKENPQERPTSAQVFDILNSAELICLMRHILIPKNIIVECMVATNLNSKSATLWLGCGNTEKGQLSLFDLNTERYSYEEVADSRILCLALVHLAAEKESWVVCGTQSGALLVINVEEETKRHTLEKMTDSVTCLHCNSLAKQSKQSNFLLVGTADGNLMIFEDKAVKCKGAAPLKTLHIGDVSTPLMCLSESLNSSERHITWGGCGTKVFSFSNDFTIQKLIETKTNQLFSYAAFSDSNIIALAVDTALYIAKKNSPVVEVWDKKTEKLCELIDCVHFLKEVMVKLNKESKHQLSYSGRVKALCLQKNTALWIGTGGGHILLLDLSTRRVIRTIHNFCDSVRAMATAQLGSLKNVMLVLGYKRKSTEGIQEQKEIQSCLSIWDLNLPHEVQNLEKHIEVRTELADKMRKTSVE
LRRK2[A2016T], sequence (Q5S007 whole entry A2016T): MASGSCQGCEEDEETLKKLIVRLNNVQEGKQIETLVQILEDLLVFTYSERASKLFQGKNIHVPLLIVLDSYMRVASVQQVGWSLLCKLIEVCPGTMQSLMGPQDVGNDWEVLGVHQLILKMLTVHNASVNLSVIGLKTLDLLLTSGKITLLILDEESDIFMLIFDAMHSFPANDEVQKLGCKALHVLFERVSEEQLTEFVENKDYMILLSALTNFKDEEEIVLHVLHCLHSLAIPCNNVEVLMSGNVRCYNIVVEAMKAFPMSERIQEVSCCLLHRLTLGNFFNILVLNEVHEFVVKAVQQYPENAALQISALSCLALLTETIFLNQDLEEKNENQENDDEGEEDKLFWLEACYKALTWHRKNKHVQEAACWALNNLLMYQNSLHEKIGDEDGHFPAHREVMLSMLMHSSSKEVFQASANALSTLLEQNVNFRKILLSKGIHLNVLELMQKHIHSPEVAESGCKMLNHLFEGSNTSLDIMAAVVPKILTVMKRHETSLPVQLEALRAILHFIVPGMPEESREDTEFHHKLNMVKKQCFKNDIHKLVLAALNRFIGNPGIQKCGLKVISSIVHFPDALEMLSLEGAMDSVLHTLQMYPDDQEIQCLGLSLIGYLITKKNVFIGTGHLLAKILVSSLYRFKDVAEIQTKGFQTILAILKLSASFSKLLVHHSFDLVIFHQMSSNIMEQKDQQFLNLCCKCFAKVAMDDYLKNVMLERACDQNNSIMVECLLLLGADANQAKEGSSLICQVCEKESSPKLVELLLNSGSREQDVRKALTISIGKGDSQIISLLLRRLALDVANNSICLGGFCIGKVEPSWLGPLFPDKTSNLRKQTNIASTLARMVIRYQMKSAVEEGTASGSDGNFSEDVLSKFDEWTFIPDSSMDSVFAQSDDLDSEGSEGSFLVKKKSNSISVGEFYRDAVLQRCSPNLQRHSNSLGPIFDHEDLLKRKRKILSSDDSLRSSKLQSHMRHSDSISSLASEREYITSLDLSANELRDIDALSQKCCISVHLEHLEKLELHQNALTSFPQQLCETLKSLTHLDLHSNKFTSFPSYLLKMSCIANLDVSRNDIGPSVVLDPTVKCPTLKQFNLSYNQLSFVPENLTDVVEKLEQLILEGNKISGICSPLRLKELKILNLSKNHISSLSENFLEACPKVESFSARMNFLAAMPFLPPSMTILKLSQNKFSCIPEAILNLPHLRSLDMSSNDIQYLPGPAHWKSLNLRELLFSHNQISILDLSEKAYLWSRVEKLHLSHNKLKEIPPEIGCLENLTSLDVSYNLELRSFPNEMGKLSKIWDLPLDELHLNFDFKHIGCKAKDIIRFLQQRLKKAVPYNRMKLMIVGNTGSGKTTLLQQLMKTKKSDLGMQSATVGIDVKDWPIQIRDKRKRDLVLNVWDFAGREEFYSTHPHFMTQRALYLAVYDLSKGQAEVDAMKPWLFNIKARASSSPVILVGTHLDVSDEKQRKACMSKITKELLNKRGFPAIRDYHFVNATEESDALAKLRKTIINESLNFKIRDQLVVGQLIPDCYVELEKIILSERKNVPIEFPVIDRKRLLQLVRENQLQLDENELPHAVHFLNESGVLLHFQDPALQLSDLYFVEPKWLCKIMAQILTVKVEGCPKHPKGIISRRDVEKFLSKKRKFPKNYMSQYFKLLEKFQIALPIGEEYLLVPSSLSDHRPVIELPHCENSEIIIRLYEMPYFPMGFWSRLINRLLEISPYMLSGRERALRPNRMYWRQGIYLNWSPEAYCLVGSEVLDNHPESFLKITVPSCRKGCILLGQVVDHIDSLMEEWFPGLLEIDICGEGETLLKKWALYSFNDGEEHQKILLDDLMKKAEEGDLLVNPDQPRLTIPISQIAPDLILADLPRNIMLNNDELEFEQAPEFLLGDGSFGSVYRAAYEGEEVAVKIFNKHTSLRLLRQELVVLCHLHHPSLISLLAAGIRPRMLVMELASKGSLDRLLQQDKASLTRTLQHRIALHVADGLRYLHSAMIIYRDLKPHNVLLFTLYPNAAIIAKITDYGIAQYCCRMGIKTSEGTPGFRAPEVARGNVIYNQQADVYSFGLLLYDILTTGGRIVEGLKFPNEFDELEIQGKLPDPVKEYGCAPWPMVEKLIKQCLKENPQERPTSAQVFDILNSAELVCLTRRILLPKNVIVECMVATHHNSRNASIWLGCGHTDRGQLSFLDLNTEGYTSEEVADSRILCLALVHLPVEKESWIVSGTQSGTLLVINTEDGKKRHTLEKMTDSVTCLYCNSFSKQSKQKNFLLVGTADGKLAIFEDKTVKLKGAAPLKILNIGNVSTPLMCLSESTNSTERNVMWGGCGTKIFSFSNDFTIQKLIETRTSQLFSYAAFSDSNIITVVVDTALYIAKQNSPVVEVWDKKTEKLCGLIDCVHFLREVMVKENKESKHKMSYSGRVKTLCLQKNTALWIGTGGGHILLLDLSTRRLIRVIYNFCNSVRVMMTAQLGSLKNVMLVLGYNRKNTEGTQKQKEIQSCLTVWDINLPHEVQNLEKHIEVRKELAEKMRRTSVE
GFP-LRRK2[A2016T], sequence (Q5S007 whole entry A2016T): as above

SMILES	Inhibition of the A2016T mutant (LRRK2[A2016T])	Exposure in mouse brains [1]	Concentration inducing dephosphorylation of Ser910 and 935 (GFP-LRRK2[A2016T]) [µM]	Ser910 and Ser935 dephosphorylation of LRRK2 in kidney and spleen (endogenous LRRK2; oral gavage 10 mg/kg, 10 mg/kg)	Ser910 and Ser935 dephosphorylation of LRRK2 in kidney and spleen (endogenous LRRK2; oral gavage 50 mg/kg)	Inhibition of LRRK2 Ser910 or Ser935 phosphorylation in the brain (endogenous LRRK2; oral gavage 10 or 50 mg/kg)	inhibition at 1 µM (CAMKKβ) [%]	inhibition at 1 µM (CHK2) [%]	inhibition at 1 µM (NUAK1) [%]	inhibition at 1 µM (PHKã1(PBK)) [%]	inhibition at 1 µM (TSSK1) [%]
COc1cc(C(=O)N2CCC(N3CCN(C)CC3)CC2)ccc1Nc1ncc2c(n1)N(C)c1ccccc1C(=O)N2C [LRRK2-IN-1]	dramatic resistance	neither compound is able to achieve good exposure in mouse brains									
COc1cc(N2CCC(N3CCN(C)CC3)CC2)ccc1Nc1ncc(Cl)c(Nc2ccccc2S(=O)(=O)C(C)C)n1 [TAE684, 5-chloro-N4-(2-(isopropylsulfonyl)phenyl)-N2-(2-methoxy-4-(4-(4-methyl-piperazin-1-yl)piperidin-1-yl)phenyl)pyrimidine-2,4-diamine]	relatively insensitive to the A2016T mutation; also recorded: maintains significant inhibition		1 to 3	slightly lower effect; also recorded: substantially inhibits	complete Ser910 and Ser935 dephosphorylation	no inhibition; also recorded: does not inhibit phosphorylation; also recorded: not in brain	> 90	> 90	> 90	> 90	> 90
COc1cc(N2CCOCC2)ccc1Nc1ncc(F)c(Nc2ccccc2NS(C)(=O)=O)n1 [CZC-25146]		neither compound is able to achieve good exposure in mouse brains									
